Measured values: article PMC4559079 (Journal of Hematology & Oncology, 2015)
“And” between values parts separate entries of the source, which are not always exact repeats. Identical values can stand only once. “Also recorded” adds a separate entry of the source. Like-named read-outs stand apart in the source and are kept apart here.

Assays:
[1] = Plasma PK of ixazomib given with lenalidomide–dexamethasone, phase 1 study in East Asian patients with RRMM (LC/MS/MS, non-compartmental analysis); assay type: in vivo, human; settings: for Accumulation ratio: day 15 AUC0–168/day 1 AUC0–168; for DN AUC0–168 / DN C max: dose-normalized; for Tmax / half-life / Cmax / AUC(0-t): human, plasma; for AUC(0-t): read-out: AUC0–168
Method: Plasma PK parameters were calculated for patients in the safety population following administration of ixazomib on cycle 1 day 1 and/or cycle 1 day 15 provided sufficient concentration–time data were available, the patient had received the protocol-specified ixazomib dosing regimen during cycle 1, and no excluded concomitant medications were received during the PK sampling period. PK parameters were estimated using non-compartmental analysis methods from the ixazomib concentration versus time data. The analyses were performed using Phoenix WinNonlin version 6.2 (Pharsight, Princeton, NJ). PK parameters were summarized, as appropriate, using descriptive statistics. DN AUC data in East Asian patients were compared with data for Western patients, pooled from three phase 1/2 trials of patients with RRMM (NCT00963820), NDMM (NCT01217957), and relapsed/refractory AL amyloidosis (NCT01318902).

[2] = set-up: method as in PMID 24904120, PMID 25456369; settings: Western patients, pooled from three studies, single agent or with lenalidomide–dexamethasone, cited from earlier work
[3] = set-up: method as in PMID 25377318; settings: Western patients, cited from earlier work
[4] = ixazomib with lenalidomide and dexamethasone; Western patients with NDMM; cited from earlier work
[5] = cycle 1 day 1, Chinese, geometric mean (% CV)
[6] = cycle 1 day 1, Korean, geometric mean (% CV)
[7] = cycle 1 day 1, Other, geometric mean (% CV)
[8] = cycle 1 day 15, Chinese, geometric mean (% CV)
[9] = cycle 1 day 15, Korean, geometric mean (% CV)
[10] = cycle 1 day 15, Other, geometric mean (% CV)
[11] = po, cycle 1 day 1, Chinese, geometric mean (% CV), 4.0 mg oral + lenalidomide–dexamethasone
[12] = po, cycle 1 day 1, Korean, geometric mean (% CV), 4.0 mg oral + lenalidomide–dexamethasone
[13] = po, cycle 1 day 1, Other, geometric mean (% CV), 4.0 mg oral + lenalidomide–dexamethasone
[14] = po, cycle 1 day 1, Overall, geometric mean (% CV), 4.0 mg oral + lenalidomide–dexamethasone
[15] = po, cycle 1 day 15, Chinese, geometric mean (% CV), 4.0 mg oral + lenalidomide–dexamethasone
[16] = po, cycle 1 day 15, Korean, geometric mean (% CV), 4.0 mg oral + lenalidomide–dexamethasone
[17] = po, cycle 1 day 15, Other, geometric mean (% CV), 4.0 mg oral + lenalidomide–dexamethasone
[18] = po, cycle 1 day 15, Overall, geometric mean (% CV), 4.0 mg oral + lenalidomide–dexamethasone

In the case of `CC(C)C[C@H](NC(=O)CNC(=O)c1cc(Cl)ccc1Cl)B(O)O` [ixazomib], the “difference in geometric mean DN AUC0–168, East Asian vs Western patients (higher)” value ([1]; day 1 of dosing, 194 vs 152 ng*h/mL/mg) is reported as 28%, the “difference in geometric mean DN AUC0–168, East Asian vs Western patients (higher)” value ([1]; day 15, 401 vs 269 ng*h/mL/mg) is reported as 49% and the Accumulation ratio ([1]; Chinese, geometric mean (% CV)) is reported as 2.38 (30). For the same compound, the Accumulation ratio ([1]; Korean, geometric mean (% CV)) was 2.34 (40), the Accumulation ratio ([1]; Other, geometric mean (% CV)) was 2.56 (33) and the “DN AUC0–168” value [1, 5] was 233 (83) h*ng/mL/mg. For the same compound, the “DN C max” value [1, 5] was 12.6 (102) ng/mL/mg, the “DN AUC0–168” value [1, 6] was 157 (47) h*ng/mL/mg and the “DN C max” value [1, 6] was 5.53 (99) ng/mL/mg. For the same compound, the “DN AUC0–168” value [1, 7] was 180 (63) h*ng/mL/mg, the “DN C max” value [1, 7] was 8.93 (118) ng/mL/mg and the “DN AUC0–168” value ([1]; cycle 1 day 1, Overall East Asian, geometric mean (% CV)) was 194 [78 % CV] h*ng/mL/mg and 194 (78) h*ng/mL/mg. The “DN C max” value ([1]; cycle 1 day 1, Overall, geometric mean (% CV)) was 8.45 (115) ng/mL/mg, the “DN AUC0–168” value [1, 8] was 438 (39) h*ng/mL/mg and the “DN C max” value [1, 8] was 12.6 (71) ng/mL/mg. The “DN AUC0–168” value [1, 9] was 362 (49) h*ng/mL/mg, the “DN C max” value [1, 9] was 9.51 (67) ng/mL/mg and the “DN AUC0–168” value [1, 10] was 383 (81) h*ng/mL/mg. For the same compound, the “DN C max” value [1, 10] was 10.6 (97) ng/mL/mg, the “DN AUC0–168” value ([1]; cycle 1 day 15, Overall East Asian, geometric mean (% CV)) was 401 [48 % CV] h*ng/mL/mg and 401 (48) h*ng/mL/mg and the “DN C max” value ([1]; cycle 1 day 15, Overall, geometric mean (% CV)) was 11.0 (72) ng/mL/mg. For the same compound, the Tmax ([1]; oral, days 1 and 15 of cycle 1, East Asian patients, with lenalidomide–dexamethasone, read-out: median time to maximum plasma concentration) was 1.5 to 2 h, the half-life ([1]; oral, geometric mean, after multiple dosing, overall East Asian patients, read-out: terminal half-life (converted)) was 146 h and the half-life ([1]; oral, terminal disposition phase, cycle 1 day 15, Chinese, geometric mean (% CV), read-out: t1/2 (converted)) was 148 h. The half-life ([1]; oral, terminal disposition phase, cycle 1 day 15, Korean, geometric mean (% CV), read-out: t1/2 (converted)) was 145 h, the half-life ([1]; oral, terminal disposition phase, cycle 1 day 15, Other, geometric mean (% CV), read-out: t1/2 (converted)) was 148 h and the half-life ([1]; oral, terminal disposition phase, cycle 1 day 15, Overall, geometric mean (% CV), read-out: t1/2 (converted)) was 147 h. It also gave a Cmax [1, 11] of 50.6 ng/mL, an AUC(0-t) [1, 11] of 933 ng·h/mL and a Tmax ([1]; po, cycle 1 day 1, Chinese, median (range), 4.0 mg oral + lenalidomide–dexamethasone, read-out: T max) of 1.04 h. The Cmax [1, 12] was 22.1 ng/mL, the AUC(0-t) [1, 12] was 630 ng·h/mL and the Tmax ([1]; po, cycle 1 day 1, Korean, median (range), 4.0 mg oral + lenalidomide–dexamethasone, read-out: T max) was 1.95 h. The Cmax [1, 13] was 35.7 ng/mL, the AUC(0-t) [1, 13] was 720 ng·h/mL and the Tmax ([1]; po, cycle 1 day 1, Other, median (range), 4.0 mg oral + lenalidomide–dexamethasone, read-out: T max) was 1.75 h. For the same compound, the Cmax [1, 14] was 33.8 ng/mL, the AUC(0-t) [1, 14] was 776 ng·h/mL and the Tmax ([1]; po, cycle 1 day 1, Overall, median (range), 4.0 mg oral + lenalidomide–dexamethasone, read-out: T max) was 1.5 h. For the same compound, the Cmax [1, 15] was 50.3 ng/mL, the AUC(0-t) [1, 15] was 1750 ng·h/mL and the Tmax ([1]; po, cycle 1 day 15, Chinese, median (range), 4.0 mg oral + lenalidomide–dexamethasone, read-out: T max) was 2 h. It also gave a Cmax [1, 16] of 38 ng/mL, an AUC(0-t) [1, 16] of 1450 ng·h/mL and a Tmax ([1]; po, cycle 1 day 15, Korean, median (range), 4.0 mg oral + lenalidomide–dexamethasone, read-out: T max) of 2 h. It also gave a Cmax [1, 17] of 42.4 ng/mL, an AUC(0-t) [1, 17] of 1530 ng·h/mL and a Tmax ([1]; po, cycle 1 day 15, Other, median (range), 4.0 mg oral + lenalidomide–dexamethasone, read-out: T max) of 1.25 h. It also gave a Cmax [1, 18] of 43.9 ng/mL, an AUC(0-t) [1, 18] of 1610 ng·h/mL and a Tmax ([1]; po, cycle 1 day 15, Overall, median (range), 4.0 mg oral + lenalidomide–dexamethasone, read-out: T max) of 2 h. For the same compound, the “DLT-evaluable patients experiencing DLTs” value (cycle 1, 4.0 mg ixazomib with lenalidomide–dexamethasone) was 2 of 24, the “dose-limiting toxicities in the first six patients” value (starting dose 4.0 mg ixazomib, cycle 1, with lenalidomide–dexamethasone) was “No dose-limiting toxicities; also recorded: no DLTs” and the “recommended phase 2/3 dose (RP2/3D)” value (weekly oral ixazomib with lenalidomide–dexamethasone, East Asian patients with RRMM) was 4.0 mg. For the same compound, the “geometric mean DN AUC0–168” value ([2]; day 1 of dosing) was 152 [95 % CV] ng*h/mL/mg, the “geometric mean DN AUC0–168” value ([2]; day 15) was 269 [44 % CV] ng*h/mL/mg and the MTD [3] was 2.97 mg/m^2. For the same compound, the “MTD, equated to fixed dose” value ([3]; equates to 2.97 mg/m^2) was 5.5 mg and the “recommended phase 2/3 dose (RP2/3D)” value [4] was 4.0 mg.
